# Literature values in patent US8158685B2, “Method for bone growth” (priority 2004, dated 2012).
# What was measured:
# bone graft = settings: fluoride alone added to bone graft material
# spine = settings: immediate-release form, 75 mg/day with calcium carbonate over 4 years
Structure (SMILES),improvement/increase in bone density (bone graft),bone density increase (spine),effect on spinal fractures (spine)
F [fluoride],20%,,
[F-].[Na+] [sodium fluoride],,35%,failed to reduce spinal fractures
